Source: PubChem BioAssay AID1963968 (Molecular Pharmacology Branch, DTP, NCI, 2024)

Test system: 945468-187-T-J3-PDC spheroids with HUVEC/MSC, viability
Assay: Anticancer human tumor 945468-187-T-J3-PDC patient-derived rectal carcinoma cell line growth inhibition [PI3K]
Details: for IC50: curve of first compound; for viability, T/C: stronger effect = lower value
In short: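 Agents were dosed from a top concentration near clinical Cmax (otherwise 10 microM) in half-log decrements, alone or combined with PI3K inhibitors. The spheroids contain tumor cells plus endothelial (HUVEC) and MSC stroma; viability is measured.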
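Further: spheroids exposed to agents for 7 days before viability read.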
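Wherever viability, T/C is given: 100% = DMSO vehicle control viability.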

With `Cn1cnc2c(F)c(Nc3ccc(Br)cc3Cl)c(C(=O)NOCCO)cc21` + CC(Nc1ncnc2nc[nH]c12)c1cc2cccc(Cl)c2c(=O)n1-c1ccccc1 the IC50 (second compound 0.0316 µM) was > 3 µM, the IC50 (second compound 0.1 µM) was > 3 µM and the IC50 (second compound 0.316 µM) was > 3 µM. The IC50 (second compound 1 µM) was > 3 µM, the IC50 (second compound 3.16 µM) was > 3 µM and the IC50 (second compound 10 µM) was > 3 µM. It also gave a viability, T/C (second compound 0.0316 µM, first compound 0.00949 µM) of 106%, a viability, T/C (second compound 0.0316 µM, first compound 0.03 µM) of 103% and a viability, T/C (second compound 0.0316 µM, first compound 0.0949 µM) of 116%. For the same compound, the viability, T/C (second compound 0.0316 µM, first compound 0.3 µM) was 115%, the viability, T/C (second compound 0.0316 µM, first compound 0.949 µM) was 104% and the viability, T/C (second compound 0.0316 µM, first compound 3 µM) was 87.2%. It also gave a viability, T/C (second compound 0.1 µM, first compound 0.00949 µM) of 96%, a viability, T/C (second compound 0.1 µM, first compound 0.03 µM) of 98% and a viability, T/C (second compound 0.1 µM, first compound 0.0949 µM) of 109%. It also gave a viability, T/C (second compound 0.1 µM, first compound 0.3 µM) of 104%, a viability, T/C (second compound 0.1 µM, first compound 0.949 µM) of 101% and a viability, T/C (second compound 0.1 µM, first compound 3 µM) of 95.6%. The viability, T/C (second compound 0.316 µM, first compound 0.00949 µM) was 100%, the viability, T/C (second compound 0.316 µM, first compound 0.03 µM) was 104% and the viability, T/C (second compound 0.316 µM, first compound 0.0949 µM) was 108%. The viability, T/C (second compound 0.316 µM, first compound 0.3 µM) was 111%, the viability, T/C (second compound 0.316 µM, first compound 0.949 µM) was 112% and the viability, T/C (second compound 0.316 µM, first compound 3 µM) was 89%. The viability, T/C (second compound 1 µM, first compound 0.00949 µM) was 97.2%, the viability, T/C (second compound 1 µM, first compound 0.03 µM) was 99.6% and the viability, T/C (second compound 1 µM, first compound 0.0949 µM) was 110%. The viability, T/C (second compound 1 µM, first compound 0.3 µM) was 103%, the viability, T/C (second compound 1 µM, first compound 0.949 µM) was 106% and the viability, T/C (second compound 1 µM, first compound 3 µM) was 84.1%. It also gave a viability, T/C (second compound 3.16 µM, first compound 0.00949 µM) of 94.5%, a viability, T/C (second compound 3.16 µM, first compound 0.03 µM) of 119% and a viability, T/C (second compound 3.16 µM, first compound 0.0949 µM) of 105%. It also gave a viability, T/C (second compound 3.16 µM, first compound 0.3 µM) of 107%, a viability, T/C (second compound 3.16 µM, first compound 0.949 µM) of 102% and a viability, T/C (second compound 3.16 µM, first compound 3 µM) of 73.8%. The viability, T/C (second compound 10 µM, first compound 0.00949 µM) was 101%, the viability, T/C (second compound 10 µM, first compound 0.03 µM) was 98.8% and the viability, T/C (second compound 10 µM, first compound 0.0949 µM) was 97.2%. The viability, T/C (second compound 10 µM, first compound 0.3 µM) was 98.4%, the viability, T/C (second compound 10 µM, first compound 0.949 µM) was 93.7% and the viability, T/C (second compound 10 µM, first compound 3 µM) was 60.6%.
